What was measured:
[1] = Time course analysis of thymidine phosphorylation by cell-free translation products; format: biochemical; conditions: for TK activity (thymidine phosphorylation) in time course compared to wild-type TK: cell-free translation products, 30° C., adjusted to protein synthesis levels; for classification on the basis of TK activities: high-activity or low-activity subset
Description: The transcripts described above were then used in a rabbit reticulocyte lysate cell-free translation system to synthesize active enzymes. Cell-free translation was according to Promega using nuclease-treated rabbit reticulocyte lysates.
For the high-activity mutant enzymes, unlabeled translation products were diluted 1/9 and incubated for 0, 5, 10, 20, or 30 minutes at 30° C. The TK activity results (counts per minute) were adjusted to reflect equivalent protein synthesis levels using the corresponding TCA-precipitable counts (^35S cpm).
The low-activity mutants were diluted 1/5, and the rate of phosphorylation as a function of time was also determined.

[2] = format: biochemical; conditions: for thermal stability compared to HSVTKII after 42° C. preincubation: cell-free translation products
Description: To substantiate this observation, cell-free translation products were incubated at 42° C. for increasing times prior to being assayed for enzyme activity. Briefly, cell free translation (“CFT”) products of each high-activity mutant, -RNA, and HSVTKII samples were diluted 1/9 and incubated for 0, 5, 10, and 20 minutes at 42° C. The preincubated samples were then assayed for 5 minutes (P155A/F161V and F161I) or 20 minutes (-RNA, HSVTKII, F161C, and D162E). The percent of activity remaining was determined with the untreated samples set at 100%. […] Because F161C lost greater than 90% of enzyme activity within the first 20 minutes at 42° C., shorter incubation periods at 42° C. were performed (0, 5, 10, and 20 minutes).
Low-activity mutant CFT products were diluted 1/5 and incubated for 0, 20, 40, or 60 minutes at 42° C. The preincubated samples were then assayed in triplicate for the thymidine phosphorylation for 60 minutes. The percent of activity remaining was determined using the untreated (time 0) sample as 100%.

[3] = Substrate specificity assay, ACV; format: biochemical; conditions: cell-free translation products, 2 hours at 30° C.
Description: (§1) Three of the mutants (P155A/F161V, F161I and F161C) were assayed in triplicate for the relative levels of phosphorylation using thymidine, deoxycytidine, ACV, GCV, or AZT as substrates. Briefly, forty-eight […] of each tritiated substrate was used in each assay reaction. Translation products were diluted for each nucleoside assay as follows (translation/H2O). 1/100, thymidine; 2/3, deoxycytidine, GCV, and AZT; 4/1, ACV. Each set of assays was incubated for 2 hours at 30° C. and the amount of phosphorylated product determined.

[4] = Substrate specificity assay, deoxycytidine; format: biochemical; conditions: cell-free translation products, 2 hours at 30° C.
Description: as §1

E. coli KY895 = assay: Secondary screen: colony formation on acyclovir, AZT, LB and TK selection plates; format: cell-based; set-up: key to ACV / AZT / LB / 37° C. / 42° C.: ++: the same number of colonies were observed as compared to control plates; +: fewer (<20% those observed with pMCC) and generally smaller (˜50% smaller diameter) colonies were observed as compared to control plates; −: no colonies were observed; conditions: for utilization of nucleoside analogues over thymidine in comparison to the wild-type: ACV and AZT plates; for AZT: colonies on AZT plates: 1 μg/mL thymidine + 0.05 μg/mL AZT; for AZT / ACV: 37° C.; for LB: colonies on LB+carb50 plates; for 37° C.: colonies on TK selection plates at 37° C.; for 42° C.: colonies on TK selection plates at 42° C.; for ACV: colonies on acyclovir plates: 1 μg/mL thymidine + 1 μg/mL acyclovir
Description: The ability of pMCC (KY895) and 35 log-phase mutant pMDC (KY895) cultures to produce colonies on acyclovir (“ACV”) or AZT plates was determined in a secondary screen as described below. Briefly, log-phase cultures of TK positive clones were serially diluted in 0.9% NaCl and spread onto acyclovir or AZT plates (TK selection plates except 1 μ/mL thymidine+1 μg/mL acyclovir or 0.05 μg/mL AZT). Mutant cultures were also spread onto duplicate TK selection and LB+carb^50 plates. One set of TK selection plates and LB+carb^50 plates were incubated at 42° C. All other plates were incubated at 37° C. After 16-24 hours the plates were scored.
Briefly, only mutants that gave results which differed from those observed with the wild-type pMCC (KY895) are shown.

[5] = Substrate specificity assay, thymidine; format: biochemical; conditions: cell-free translation products, 2 hours at 30° C.
Description: as §1

Substance	TK activity (thymidine phosphorylation) in time course compared to wild-type TK [1]	classification on the basis of TK activities [1]	thermal stability compared to HSVTKII after 42° C. preincubation [2]	phosphorylation of ACV over HSVTKII [3] [fold]	phosphorylation of deoxycytidine over the wild-type enzyme [4] [fold]	activity loss after only 5 minutes at 42° C. ([2]; cell-free translation product) [%]	loss of enzyme activity within the first 20 minutes at 42° C. ([2]; cell-free translation product)	utilization of nucleoside analogues over thymidine in comparison to the wild-type (E. coli KY895)	AZT (E. coli KY895)	LB (E. coli KY895)	37° C. (E. coli KY895)	42° C. (E. coli KY895)	ACV (E. coli KY895)	phosphorylation of thymidine relative to HSVTKII [5] [fold]	ability to form colonies on TK selection plates at 42° C. (E. coli KY895)
D162E	no difference in activities when compared to the wild-type TK	high-activity													
D162G		low-activity	equivalent to HSVTKII												
F161C	no difference in activities when compared to the wild-type TK	high-activity	exceptionally thermolabile	2	2.8	~85	greater than 90%	preferentially utilize one or both nucleoside analogues over thymidine	−	++	++	++	+ (fewer (<20% those observed with pMCC) and generally smaller (˜50% smaller diameter) colonies were observed as compared to control plates)		
F161I	statistically higher affinity for thymidine than the wild-type TK	high-activity			1.9			preferentially utilize one or both nucleoside analogues over thymidine	+ (fewer (<20% those observed with pMCC) and generally smaller (˜50% smaller diameter) colonies were observed as compared to control plates)	++	++	++	+ (fewer (<20% those observed with pMCC) and generally smaller (˜50% smaller diameter) colonies were observed as compared to control plates)	2.2	
F161I/R163H		low-activity	equivalent to HSVTKII						++	++	++	+ (fewer (<20% those observed with pMCC) and generally smaller (˜50% smaller diameter) colonies were observed as compared to control plates)	++		severely reduced ability to form colonies
F161L	moderate ability to phosphorylate thymidine, albeit at a much reduced rate from HSVTKII	low-activity	more thermolabile that HSVTKII						++	++	++	−	++		unable to form colonies
P155A/F161V	statistically higher affinity for thymidine than the wild-type TK	high-activity		2.4	2.8			preferentially utilize one or both nucleoside analogues over thymidine	+ (fewer (<20% those observed with pMCC) and generally smaller (˜50% smaller diameter) colonies were observed as compared to control plates)	++	++	++	++	2.6	
R163P/H164Q		low-activity	equivalent to HSVTKII					preferentially utilize one or both nucleoside analogues over thymidine	+ (fewer (<20% those observed with pMCC) and generally smaller (˜50% smaller diameter) colonies were observed as compared to control plates)	++	++	−	+ (fewer (<20% those observed with pMCC) and generally smaller (˜50% smaller diameter) colonies were observed as compared to control plates)		unable to form colonies
